Reference: patent US20090124608A1, “CB2 Receptor Modulators In Neurodegenerative Diseases And Applications Of The Same” (priority 2006, published 2009)
Entries after “also recorded” stand apart in the source; their conditions may differ.

Legend:
cannabinoid receptors = assay: GTPγS binding in end stage spinal cord homogenates from G93A-SOD1 mice, separated by gender; assay type: biochemical, mouse; conditions: for 2-AG stimulated G-protein activation remaining on co-incubation with CB2 ligand / HU-210 stimulated G-protein activation remaining on co-incubation with CB2 ligand: ligand 1 μM
Protocol: (§1) [^35S]GTPγS binding assays were performed as described previously (Prather et al. 2000a) in a buffer containing 20 mM Hepes, 100 mM NaCl, and 10 mM MgCl2 at pH 7.4. Each binding reaction contained 10 μg of spinal cord membrane protein, the presence or absence of cannabinoid ligands (see following), plus 0.1 nM [^35S]GTPγS (1250 Ci/mmol, Perkin Elmer Life and Analytical Sciences) and […] of GDP to suppress basal G-protein activation. Reactions were incubated for 2 hrs at 30 °C. Non-specific binding was defined by binding observed in the presence of 10 μM of non-radioactive GTPγS. The reaction was terminated by rapid vacuum filtration through glass fiber filters followed by two washes with ice-cold assay buffer. 4 mL of scintiverse® (Fisher Scientific) was added to the filters and radioactivity quantified by scintillation counting.
Harvested spinal cords from the vehicle treated control groups at the end-stage of their disease were separated by gender and used to conduct GTP7S binding experiments, which measure the capability of a ligand to promote or suppress G-protein activation.
It was next determined if the selective CB2 ligands antagonize G-protein activation produced by an endocannabinoid such as 2-AG as well.

CB1 and CB2 receptors = assay: [35S]GTPγS binding with selective agonists in mouse spinal cord membranes; assay type: biochemical; conditions: data not shown
Protocol: as §1
We initially attempted to compare CB 1 and CB2 receptor activation of G-proteins between WT-OE and G93A spinal cord membranes by conducting [^35S]GTPγS binding assays in the presence of selective agonists.

CB1 receptors = conditions: cited from earlier work; for Ki: literature value, read-out: Ki at CB1 receptors
CB2 receptors = CB2 receptors (Homo sapiens, UniProt P34972); conditions: cited from earlier work
G93A-SOD1 mice [1] = assay: Survival of G93A mice, daily i.p. treatment initiated at symptom onset; assay type: in vivo, mouse; conditions: for survival improvement versus vehicle, females: female G93A mice; for survival improvement versus vehicle, females / survival improvement versus vehicle, males: 3 mg/kg for AM-1241 and AM630, JTE-907 dose not given; for survival improvement versus vehicle, males: male G93A mice
Excerpt: Hemizygous transgenic male mice with the G93A mutation of the human SOD1 gene (G1H/1) mutation (B6SJL-TgN (SOD1-G93A) 1 Gur) were obtained from Jackson Laboratories and were bred locally with female B6SJL mice (Jackson Laboratory), according to the protocol obtained from the vendor. To decrease the inherent variability in disease onset and survival with these mice, littermate transgenic males (rather than random males from several different litters) were selected to sire subsequent generations of mice.
Determination of symptom onset, randomization and drug treatment of G93A mice. Symptom onset was assessed by blinded observation of changes in hind limb gait; these changes are related to the mouse's inability to support its weight on its hind limbs. At onset, mice initially place their weight on the toes and then quickly fall to full foot placement (as opposed to healthy mice which walk and run on the hind toes); this “toe-to-heel” walking pattern produces an asymmetric gait between hind and fore limbs and a characteristic “wobbling” gait. Mouse groups were randomized based on symptom onset and alternately placed in control and treated groups, e.g., the first mouse to develop hind limb weakness was placed in the control group, the second was injected with test compound and placed in the treatment group, and so on. […] By definition, the onset administration paradigm employed was focused on what we term the “survival interval”—namely the time from onset to end-stage sacrifice.
Mice were sacrificed when any of the following criteria were met: (1) inability to right themselves within 30 seconds when placed on their sides; (2) inability to eat or drink, or move toward food and water placed in low-rimmed dishes on cage floor; (3) loss of more than 10% of total body weight in 24 hours; (4) gross loss of grooming behavior; or (5) labored breathing. Criteria for death were confirmed by a second investigator who is blinded to the group identity of each mouse. The age of symptom onset was subtracted from the age at death for each mouse, and a mean survival interval was calculated for each group. By calculating the ratio of the survival interval of treated groups to the survival interval of untreated littermate controls, a X-fold increase in survival was readily determined.
The effect of chronic administration of cannabinoids on the survival of G93A mice was next examined (FIG. 4). […] The number of days between symptom onset and animal sacrifice was measured (e.g., survival interval). In humans, this is analogous to the time between diagnosis of ALS and death, ranging from 2-5 years.

G93A-SOD1 mice [2] = assay: Motor function test (clinging to perpendicular wire mesh screen for 60 seconds) in G93A mice; assay type: in vivo, mouse; conditions: for improvement in motor function versus vehicle, females: female G93A mice; for improvement in motor function versus vehicle, females / improvement in motor function versus vehicle, males: time to loss of ability to cling 60 seconds; for interval between mean loss of motor function and death, females: female mice, vehicle 19.0 days; for improvement in motor function versus vehicle, males: male G93A mice; for interval between mean loss of motor function and death, males: male mice, vehicle 20.5 days
Protocol: Beginning on the first day of observing symptoms, mice were tested for motor function biweekly until sacrifice. Motor function testing was initiated by gently placing animals on a horizontal wire mesh screen. The screen was slowly rotated to be perpendicular to the ground (90°). The duration that mice were able to hang onto the perpendicular wire mesh up to a maximum of 120 seconds was recorded. Because vehicle treated mice on average lost the ability to cling to the wire mesh for 60 seconds in the middle of their survival curve, this “all or none” response was utilized to compare motor function across all treatment groups. Kaplan-Meier time-to-event statistics were employed to analyze the data. The event was defined as the number of days after symptom onset that each individual animal was no longer able to cling to the wire mesh screen for 60 seconds.
Testing twice a week for the duration of the study provided a quantifiable decline during disease progression. Mice were placed on a horizontal wire mesh screen that was gently inverted to 90°. Kaplan-Meier time-to-event curves were used to analyze the data. The event was defined as the day each animal was no longer able to cling to the perpendicular screen for 60 seconds. […] The disparity between male and female motor function was paralleled by the interval between survival for the genders. Male mice survived an average of 39.6±2.0 (FIG. 6a) days past the onset of symptoms, while females lived 9 days longer than males (p<0.0018*, FIG. 6b). For males and females, loss of motor function preceded death by 20.5 (p<0.0002***) and 19.0 days (p<0.0028**), respectively.

[3] = Water solubility and dissolution in vehicles; conditions: for stable dissolution in tested vehicles: ethanol/water, glycerol, polyethylene glycol, high purity olive oil tested
CB1/CB2 receptors [4] = assay: [35S]GTPγS binding, selective antagonism of HU-210, WT-OE spinal cord membranes; assay type: biochemical, mouse
CB1/CB2 receptors [5] = assay: [35S]GTPγS binding, selective antagonism of HU-210, G93A spinal cord membranes; assay type: biochemical, mouse
[6] = G93A mice, i.p. daily from onset, 3.0 mg/kg
[7] = daily injections initiated at symptom onset
[8] = female homogenates, HU-210 100 nM
[9] = male homogenates, HU-210 100 nM
[10] = WT-OE spinal cord membranes, HU-210 100 nM, antagonist 3 μM

Sequence of CB2 receptors (P34972 whole entry): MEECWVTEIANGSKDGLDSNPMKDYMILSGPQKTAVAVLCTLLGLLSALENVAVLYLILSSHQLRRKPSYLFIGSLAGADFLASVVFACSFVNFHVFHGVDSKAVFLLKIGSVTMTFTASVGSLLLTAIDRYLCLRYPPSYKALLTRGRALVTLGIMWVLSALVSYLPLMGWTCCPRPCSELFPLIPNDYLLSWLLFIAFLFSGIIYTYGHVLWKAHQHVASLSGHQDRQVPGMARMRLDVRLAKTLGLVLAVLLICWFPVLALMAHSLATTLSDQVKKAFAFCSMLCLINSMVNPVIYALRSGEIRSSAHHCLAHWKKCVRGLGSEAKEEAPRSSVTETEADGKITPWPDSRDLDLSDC

CCCCCC=CCC=CCC=CCC=CCCCC(=O)OC(CO)CO [2-AG, (5Z,8Z,11Z, 14Z)-5,8,11,14-Eicosatetraenoic acid, 2-hydroxy-1-(hydroxymethyl) ethyl ester]
[35S]GTPγS binding to G-proteins produced by agonist (cannabinoid receptors; female spinal cord homogenate, 2-AG 3 μM): 29.93±3.3 fmole/mg protein | Emax of G-protein activation (cannabinoid receptors; female transgenic spinal cord): 17.81±1.89 | [35S]GTPγS binding to G-proteins produced by agonist (cannabinoid receptors; male spinal cord homogenate, 2-AG 3 μM): 31.30±1.7 fmole/mg protein | Emax of G-protein activation (cannabinoid receptors; male transgenic spinal cord): 23.21±5.82

CCCCC/C=C\C/C=C\C/C=C\C/C=C\CCCC(=O)NCCCl [ACEA, (all Z)-N-(2-cycloethyl)-5,8,11,14-eicosatetraenamide]
G-protein activation by selective agonist (CB1 and CB2 receptors): failed attempts to demonstrate consistent, measurable G-protein activation; also recorded: unable to demonstrate consistent, measurable G-protein activation

Cc1c(C(=O)NN2CCCCC2)nn(-c2ccc(Cl)cc2Cl)c1-c1ccc(I)cc1 [AM-251, N-(Piperidin-1-yl)-5-(4-iodophenyl)-1-(2,4-dichlorophenyl)-4-methyl-1H-pyrazole-3-carboxamide]
Ki (CB1 receptors): ~7 nM | affinity at CB2 receptors weaker than at CB1 (CB2 receptors; Gatley et al. 1997): over 300 fold

COc1ccc(C(=O)c2c(C)n(CCN3CCOCC3)c3cc(I)ccc23)cc1 [AM-630]
Survival Interval Ratio (SIR) (G93A-SOD1 mice [1]; [6]): 2.30 | Total Life-Span Ratio (TLR) (G93A-SOD1 mice [1]; [6]): 1.27 | survival compared with AM-1241 treated mice (G93A-SOD1 mice [1]; G93A-SOD1 mice): survived twice as long as those mice treated with AM-1241 | extension of total life-span versus controls (G93A-SOD1 mice [1]; [7]): 27% | living longer after symptom onset than controls (survival interval increase) (G93A-SOD1 mice [1]; [7]): 130% | survival improvement versus vehicle, females (G93A-SOD1 mice [1]): 8% | survival improvement versus vehicle, males (G93A-SOD1 mice [1]): 27% | effect on survival of G93A-SOD1 mice (G93A-SOD1 mice [1]; treatment initiated at symptom onset): pronounced increase in survival | improvement in motor function versus vehicle, females (G93A-SOD1 mice [2]): 48% | interval between mean loss of motor function and death, females (G93A-SOD1 mice [2]): 8.7 days | improvement in motor function versus vehicle, males (G93A-SOD1 mice [2]): 64% | interval between mean loss of motor function and death, males (G93A-SOD1 mice [2]): 18.9 days | 2-AG stimulated G-protein activation remaining on co-incubation with CB2 ligand (cannabinoid receptors; female homogenate, 2-AG 3 μM): 8.49±3.7 fmole/mg protein | HU-210 stimulated G-protein activation remaining on co-incubation with CB2 ligand (cannabinoid receptors; [8]): 17.76±3.3 fmole/mg protein | 2-AG stimulated G-protein activation remaining on co-incubation with CB2 ligand (cannabinoid receptors; male homogenate, 2-AG 3 μM): 6.66±3.9 fmole/mg protein | HU-210 stimulated G-protein activation remaining on co-incubation with CB2 ligand (cannabinoid receptors; [9]): 21.02±5.6 fmole/mg protein | affinity for CB1 receptors less than for CB2 (CB1 receptors; Hosohata et al. 1997): more than 165 fold | Ki (CB2 receptors; literature value, read-out: Ki at CB2 receptors): ~20 nM | water solubility [3]: very poor water solubility | stable dissolution in tested vehicles [3]: achieved only with olive oil

CCCCCCC(C)(C)c1cc(O)c2c(c1)OC(C)(C)[C@@H]1CC=C(CO)C[C@@H]21 [HU-210, (−)-11-Hydroxy-delta(8)-tetrahydrocannabinol-dimethylheptyl]
[35S]GTPγS binding to G-proteins produced by agonist (CB1/CB2 receptors [4]; WT-OE spinal cord membranes, HU-210 100 nM): 30.7±6.2 fmole/mg protein | [35S]GTPγS binding to G-proteins produced by agonist (CB1/CB2 receptors [5]; G93A spinal cord membranes, HU-210 100 nM): 57.4±4.4 fmole/mg protein | [35S]GTPγS binding to G-proteins produced by agonist (cannabinoid receptors; female spinal cord homogenates, HU-210 100 nM): 40.59±8.5 fmole/mg protein | [35S]GTPγS binding to G-proteins produced by agonist (cannabinoid receptors; male spinal cord homogenates, HU-210 100 nM): 35.51±5.6 fmole/mg protein | Ki (CB1 receptors): ~0.5 nM

CCCCCOc1c(OC)ccc2cc(C(=O)NCc3ccc4c(c3)OCO4)c(=O)[nH]c12 [JTE-907]
survival improvement versus vehicle, females (G93A-SOD1 mice [1]): 25% | survival improvement versus vehicle, males (G93A-SOD1 mice [1]): did not live significantly longer | improvement in motor function versus vehicle, females (G93A-SOD1 mice [2]): 92% | interval between mean loss of motor function and death, females (G93A-SOD1 mice [2]): 4 days | improvement in motor function versus vehicle, males (G93A-SOD1 mice [2]): 61% | interval between mean loss of motor function and death, males (G93A-SOD1 mice [2]): 10.7 days | reduction of HU-210 induced G-protein activation (CB2 receptor antagonism) (cannabinoid receptors; female homogenate): 31.34 fmole/mg protein | 2-AG stimulated G-protein activation remaining on co-incubation with CB2 ligand (cannabinoid receptors; female homogenate, 2-AG 3 μM): 5.96±0.97 fmole/mg protein | HU-210 stimulated G-protein activation remaining on co-incubation with CB2 ligand (cannabinoid receptors; [8]): 9.25±1.2 fmole/mg protein | reduction of HU-210 induced G-protein activation (CB2 receptor antagonism) (cannabinoid receptors; male homogenate): 12.31 fmole/mg protein | 2-AG stimulated G-protein activation remaining on co-incubation with CB2 ligand (cannabinoid receptors; male homogenate, 2-AG 3 μM): 18.14±2.1 fmole/mg protein | HU-210 stimulated G-protein activation remaining on co-incubation with CB2 ligand (cannabinoid receptors; [9]): 23.3 fmole/mg protein | water solubility [3]: very poor water solubility | stable dissolution in tested vehicles [3]: achieved only with olive oil

Cc1c(C(=O)c2cccc3ccccc23)c2cccc3c2n1C(CN1CCOCC1)CO3 (stereo not drawn) [WIN-55,212-2, [2,3-Dihydro-5-methyl-3-[(morpholinyl)methyl]pyrrolo-[1,2,3-de]-1,4-benzoxazin-yl]-(1-naphthalenyl)methanone]
increase in survival interval versus vehicle (G93A-SOD1 mice [1]; 5 mg/kg daily i.p.): 8.8 days | survival interval (symptom onset to sacrifice) (G93A-SOD1 mice [1]; 5 mg/kg daily i.p., vehicle 23.7+/−1.7 days): 32.5 ± 3.6 days | water solubility [3]: very poor water solubility | stable dissolution in tested vehicles [3]: achieved only with olive oil

(−)-cis-3-[2-Hydroxy-4-(1,1-dimethylheptyl)-phenyl]-trans-4-(3-hydroxypropyl)-cyclohexanol) [CP-55,940]
Ki (CB1 receptors): ~0.5 nM

N-[(1S)-endo-1,3,3-Trimethylbicyclo[2.2.1]heptan-2-yl]-5-(4-chloro-3-methylphenyl)-1-(4-ethoxybenzyl)-pyrazole-3-carboxamide [SR-144528]
net reduction of HU-210-induced G-protein activation (CB1/CB2 receptors [4]; WT-OE membranes, antagonist 3 μM): 15.6 fmoles/mg protein | % blockade of HU-210-induced G-protein activation (CB1/CB2 receptors [4]; [10]): approximately 50% | HU-210 stimulated [35S]GTPγS binding remaining on co-incubation with antagonist (CB1/CB2 receptors [4]; [10]): 15.1±1.1 fmole/mg protein | % blockade of HU-210-induced G-protein activation (CB1/CB2 receptors [5]): 49% | HU-210 stimulated [35S]GTPγS binding remaining on co-incubation with antagonist (CB1/CB2 receptors [5]): 29.5±6.4 fmole/mg protein | net reduction of HU-210-induced G-protein activation (CB1/CB2 receptors [5]): 27.9 fmole/mg protein
